Results published in ChEMBL document CHEMBL1201862, “PubChem BioAssay data set” (2004).
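Results reflect a 48-hour exposure of cells in 96-well plates to compound at five concentrations. Here, GI50 denotes the concentration required for 50% inhibition of growth.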 Calls of active or inactive are those of the source. Cut-off read from the data, not from the text of the source: active = GI50 up to about 1.1 µM and inactive = higher.

Columns and labels:
Test in all cases: NCI-60 cell line screen, 48 h
BT-549 = tested on: BT-549
HT-29 = tested on: HT-29
SNB-75 = tested on: SNB-75
SK-MEL-28 = tested on: SK-MEL-28
HCT-116 = tested on: HCT-116
CCRF-CEM = tested on: CCRF-CEM
HOP-92 = tested on: HOP-92
OVCAR-4 = tested on: OVCAR-4
LOX IMVI = tested on: LOX IMVI
UACC-62 = tested on: UACC-62
UACC-257 = tested on: UACC-257
NCI/ADR-RES = tested on: NCI/ADR-RES
TK-10 = tested on: TK-10
SF-295 = tested on: SF-295
MDA-N = tested on: MDA-N
IGROV-1 = tested on: IGROV-1
ACHN = tested on: ACHN
M14 = tested on: M14
NCI-H522 = tested on: NCI-H522
KM12 = tested on: KM12
MDA-MB-435 = tested on: MDA-MB-435
NCI-H226 = tested on: NCI-H226
HOP-62 = tested on: HOP-62
OVCAR-8 = tested on: OVCAR-8
T47D = tested on: T47D
HL-60 = tested on: HL-60
OVCAR-3 = tested on: OVCAR-3
HCT-15 = tested on: HCT-15
SK-MEL-5 = tested on: SK-MEL-5
SR = tested on: SR
NCI-H460 = tested on: NCI-H460
Malme-3M = tested on: Malme-3M
RPMI-8226 = tested on: RPMI-8226
COLO 205 = tested on: COLO 205
SK-OV-3 = tested on: SK-OV-3
SN12C = tested on: SN12C
A549 = tested on: A549
EKVX = tested on: EKVX
CAKI-1 = tested on: CAKI-1
SK-MEL-2 = tested on: SK-MEL-2
Hs-578T = tested on: Hs-578T
OVCAR-5 = tested on: OVCAR-5
MDA-MB-231 = tested on: MDA-MB-231
MCF7 = tested on: MCF7
SF-268 = tested on: SF-268
SF-539 = tested on: SF-539
UO-31 = tested on: UO-31
MOLT-4 = tested on: MOLT-4
SNB-19 = tested on: SNB-19
DU-145 = tested on: DU-145
SW-620 = tested on: SW-620
NCI-H23 = tested on: NCI-H23
K562 = tested on: K562
HCC 2998 = tested on: HCC 2998
U-251 = tested on: U-251
786-0 = tested on: 786-0
PC-3 = tested on: PC-3
A498 = tested on: A498
RXF 393 = tested on: RXF 393

COc1cc(C2SCC(=O)N2c2ccc(-c3ccc(-n4c(-c5ccccc5)nc5ccccc5c4=O)cc3)cc2)ccc1O (stereo unspecified)
GI50 (BT-549): > 100 µM (inactive) | GI50 (HT-29): 39.2 µM (inactive) | GI50 (SNB-75): 15 µM (inactive) | GI50 (SK-MEL-28): > 100 µM (inactive) | GI50 (HCT-116): 47.8 µM (inactive) | GI50 (CCRF-CEM): 42.4 µM (inactive) | GI50 (HOP-92): 30.9 µM (inactive) | GI50 (OVCAR-4): 37.9 µM (inactive) | GI50 (LOX IMVI): 27.2 µM (inactive) | GI50 (UACC-62): 21.8 µM (inactive) | GI50 (UACC-257): > 100 µM (inactive) | GI50 (NCI/ADR-RES): 13.6 µM (inactive) | GI50 (TK-10): > 100 µM (inactive) | GI50 (SF-295): > 100 µM (inactive) | GI50 (MDA-N): 80 µM (inactive) | GI50 (IGROV-1): > 100 µM (inactive) | GI50 (ACHN): > 100 µM (inactive) | GI50 (M14): > 100 µM (inactive) | GI50 (NCI-H522): 35.1 µM (inactive) | GI50 (KM12): 48.2 µM (inactive) | GI50 (MDA-MB-435): 74.1 µM (inactive) | GI50 (NCI-H226): 30.9 µM (inactive) | GI50 (HOP-62): > 100 µM (inactive) | GI50 (OVCAR-8): 96.6 µM (inactive) | GI50 (T47D): 14.4 µM (inactive) | GI50 (HL-60): 65.3 µM (inactive) | GI50 (OVCAR-3): 61.5 µM (inactive) | GI50 (HCT-15): 25.8 µM | GI50 (SK-MEL-5): 26.7 µM (inactive) | GI50 (SR): > 10 µM (inactive) | GI50 (NCI-H460): > 100 µM (inactive) | GI50 (Malme-3M): > 100 µM (inactive) | GI50 (RPMI-8226): > 100 µM (inactive) | GI50 (COLO 205): > 100 µM (inactive) | GI50 (SK-OV-3): 16 µM (inactive) | GI50 (SN12C): > 100 µM (inactive) | GI50 (A549): > 100 µM (inactive) | GI50 (EKVX): > 100 µM (inactive) | GI50 (CAKI-1): > 100 µM (inactive) | GI50 (SK-MEL-2): > 100 µM (inactive) | GI50 (Hs-578T): 40.1 µM (inactive) | GI50 (OVCAR-5): 48.3 µM (inactive) | GI50 (MDA-MB-231): > 100 µM (inactive) | GI50 (MCF7): 59.4 µM (inactive) | GI50 (SF-268): 32.7 µM (inactive) | GI50 (SF-539): 54.7 µM (inactive) | GI50 (UO-31): 24.4 µM (inactive) | GI50 (MOLT-4): 37 µM (inactive) | GI50 (SNB-19): > 100 µM (inactive) | GI50 (DU-145): > 100 µM (inactive) | GI50 (SW-620): 82 µM (inactive) | GI50 (NCI-H23): > 100 µM (inactive) | GI50 (K562): 46.7 µM (inactive) | GI50 (HCC 2998): 82.2 µM (inactive) | GI50 (U-251): 44.2 µM (inactive) | GI50 (786-0): 29.6 µM (inactive) | GI50 (PC-3): 40.4 µM (inactive) | GI50 (A498): > 100 µM (inactive)

C(=N\c1cnc2ccccc2c1)/c1ccc2ccccc2n1
GI50 (BT-549): > 100 µM (inactive) | GI50 (HT-29): > 100 µM (inactive) | GI50 (SNB-75): > 100 µM (inactive) | GI50 (SK-MEL-28): > 100 µM (inactive) | GI50 (HCT-116): 35.6 µM (inactive) | GI50 (CCRF-CEM): 23.8 µM (inactive) | GI50 (HOP-92): > 100 µM (inactive) | GI50 (OVCAR-4): > 100 µM (inactive) | GI50 (LOX IMVI): 72.9 µM (inactive) | GI50 (UACC-62): > 100 µM (inactive) | GI50 (UACC-257): > 100 µM (inactive) | GI50 (NCI/ADR-RES): > 100 µM (inactive) | GI50 (TK-10): > 100 µM (inactive) | GI50 (SF-295): > 100 µM (inactive) | GI50 (MDA-N): > 100 µM (inactive) | GI50 (IGROV-1): > 100 µM (inactive) | GI50 (ACHN): > 100 µM (inactive) | GI50 (M14): > 100 µM (inactive) | GI50 (NCI-H522): > 100 µM (inactive) | GI50 (KM12): > 100 µM (inactive) | GI50 (MDA-MB-435): > 100 µM (inactive) | GI50 (NCI-H226): > 100 µM (inactive) | GI50 (HOP-62): > 100 µM (inactive) | GI50 (OVCAR-8): > 100 µM (inactive) | GI50 (T47D): > 100 µM (inactive) | GI50 (RXF 393): > 100 µM (inactive) | GI50 (HL-60): 53.3 µM (inactive) | GI50 (OVCAR-3): 27.7 µM (inactive) | GI50 (HCT-15): 55.6 µM | GI50 (SK-MEL-5): > 100 µM (inactive) | GI50 (SR): 24 µM (inactive) | GI50 (NCI-H460): > 100 µM (inactive) | GI50 (Malme-3M): > 100 µM (inactive) | GI50 (RPMI-8226): 29.2 µM (inactive) | GI50 (COLO 205): > 100 µM (inactive) | GI50 (SK-OV-3): > 100 µM (inactive) | GI50 (SN12C): > 100 µM (inactive) | GI50 (A549): > 100 µM (inactive) | GI50 (EKVX): > 100 µM (inactive) | GI50 (CAKI-1): > 100 µM (inactive) | GI50 (SK-MEL-2): > 100 µM (inactive) | GI50 (Hs-578T): > 100 µM (inactive) | GI50 (OVCAR-5): > 100 µM (inactive) | GI50 (MDA-MB-231): > 100 µM (inactive) | GI50 (MCF7): 43 µM (inactive) | GI50 (SF-268): > 100 µM (inactive) | GI50 (SF-539): > 100 µM (inactive) | GI50 (UO-31): > 100 µM (inactive) | GI50 (MOLT-4): 50 µM (inactive) | GI50 (SNB-19): > 100 µM (inactive) | GI50 (DU-145): > 100 µM (inactive) | GI50 (SW-620): 64.1 µM (inactive) | GI50 (NCI-H23): > 100 µM (inactive) | GI50 (K562): 52 µM (inactive) | GI50 (U-251): 67.5 µM (inactive) | GI50 (786-0): > 100 µM (inactive) | GI50 (PC-3): > 100 µM (inactive) | GI50 (A498): > 100 µM (inactive)
